{
  "source": "patent US9232790B2",
  "about": "“Antimicrobial cleansing compositions” (KIMBERLY-CLARK WORLDWIDE, INC., priority 2011, dated 2016)",
  "type_in_all_cases": "cell-based",
  "key": {"S. aureus (ATCC 6538)": {"system": "S. aureus (ATCC 6538)", "test": "Impact of CAPB on cationic biocides, 60 second contact test against S. aureus", "details": "0.3% active, 60 seconds contact, 0.3 g/L bovine serum albumin; for LOG10 CFU/ml Reduction, w/ CAPB: with CAPB 3.5% w/w active; for LOG10 CFU/ml Reduction, w/o CAPB: without CAPB", "experimental": "In this Example, the impact of cocamidopropyl betaine (CAPB) on the antimicrobial activity of cationic biocides against S. aureus (ATCC 6538) was analyzed.\nSpecifically, S. aureus was contacted for 60 seconds in a 0.3 g/L solution of bovine serum albumin mixed with a solution containing a cationic biocide, with or without CAPB (3.5% w/w active)."}, "E. coli K12 (ATCC 29425) [1]": {"system": "E. coli K12 (ATCC 29425)", "test": "Impact of CAPB on cationic biocides, 60 second contact test against E. coli K12", "details": "0.3% active, 60 seconds contact, 0.3 g/L bovine serum albumin; for LOG10 CFU/ml Reduction, w/ CAPB: with CAPB 3.5% w/w active; for LOG10 CFU/ml Reduction, w/o CAPB: without CAPB", "experimental": "In this Example, the impact of cocamidopropyl betaine (CAPB) on the antimicrobial activity of cationic biocides against E. coli K12 (ATCC 29425) was analyzed.\nSpecifically, E. coli K12 was contacted for 60 seconds in a 0.3 g/L solution of bovine serum albumin mixed with a solution containing a cationic biocide, with or without CAPB (3.5% w/w active)."}, "[2]": {"system": "P. aeruginosa (ATCC 15442)", "test": "Impact of CAPB on cationic biocides, 60 second contact test against P. aeruginosa", "details": "0.3% active, 60 seconds contact, 0.3 g/L bovine serum albumin; for LOG10 CFU/ml Reduction, w/ CAPB: with CAPB 3.5% w/w active; for LOG10 CFU/ml Reduction, w/o CAPB: without CAPB", "experimental": "In this Example, the impact of cocamidopropyl betaine (CAPB) on the antimicrobial activity of cationic biocides against P. aeruginosa (ATCC 15442) was analyzed.\nSpecifically, P. aeruginosa was contacted for 60 seconds in a 0.3 g/L solution of bovine serum albumin and mixed with a solution containing a cationic biocide, with or without CAPB (3.5% w/w active)."}, "E. faecalis (ATCC 29212)": {"system": "E. faecalis (ATCC 29212)", "test": "Impact of CAPB on cationic biocides, 60 second contact test against E. faecalis", "details": "0.3% active, 60 seconds contact, 0.3 g/L bovine serum albumin; for LOG10 CFU/ml Reduction, w/ CAPB: with CAPB 3.5% w/w active; for LOG10 CFU/ml Reduction, w/o CAPB: without CAPB", "experimental": "In this Example, the impact of cocamidopropyl betaine (CAPB) on the antimicrobial activity of cationic biocides against E. faecalis (ATCC 29212) was analyzed.\nSpecifically, E. faecalis was contacted for 60 seconds in a 0.3 g/L solution of bovine serum albumin mixed with a solution containing a cationic biocide, with or without CAPB (3.5% w/w active)."}, "E. coli K12 (ATCC 29425) [3]": {"system": "E. coli K12 (ATCC 29425)", "test": "Impact of other betaine-based surfactants on benzalkonium chloride efficacy against E. coli K12", "details": "60 seconds contact, 0.3 g/L bovine serum albumin; for LOG10 CFU/ml Reduction, 0.3% benzalkonium chloride + 3.5% surfactant: 0.3% benzalkonium chloride combined with 3.5% of the named betaine-based surfactant", "experimental": "In this Example, the impact of other betaine-based surfactants on the antimicrobial activity of benzalkonium chloride against E. coli K12 (ATCC 29425) was analyzed.\nSpecifically, E. coli K12 was contacted for 60 seconds in a 0.3 g/L solution of bovine serum albumin mixed with a solution containing benzalkonium chloride, with or without a betaine-based surfactant (3.5% w/w active)."}},
  "data": [
    {"molecule": "CC(C)(C)CC(C)(C)c1ccc(OCCOCC[N+](C)(C)Cc2ccccc2)cc1", "note": "[Benzethonium chloride]", "values": [
      {"measurement": "LOG10 CFU/ml Reduction, w/ CAPB", "setting": "S. aureus (ATCC 6538)", "result": "<2.4", "unit": "LOG10 CFU/ml"},
      {"measurement": "LOG10 CFU/ml Reduction, w/o CAPB", "setting": "S. aureus (ATCC 6538)", "result": ">4.9", "unit": "LOG10 CFU/ml"},
      {"measurement": "LOG10 CFU/ml Reduction, w/ CAPB", "setting": "E. coli K12 (ATCC 29425) [1]", "result": "<3.1", "unit": "LOG10 CFU/ml"},
      {"measurement": "LOG10 CFU/ml Reduction, w/o CAPB", "setting": "E. coli K12 (ATCC 29425) [1]", "result": ">5.5", "unit": "LOG10 CFU/ml"},
      {"measurement": "LOG10 CFU/ml Reduction, w/ CAPB", "setting": "[2]", "result": "<3.3", "unit": "LOG10 CFU/ml"},
      {"measurement": "LOG10 CFU/ml Reduction, w/o CAPB", "setting": "[2]", "result": ">5.7", "unit": "LOG10 CFU/ml"},
      {"measurement": "LOG10 CFU/ml Reduction, w/ CAPB", "setting": "E. faecalis (ATCC 29212)", "result": "<3.3", "unit": "LOG10 CFU/ml"},
      {"measurement": "LOG10 CFU/ml Reduction, w/o CAPB", "setting": "E. faecalis (ATCC 29212)", "result": 4.8, "unit": "LOG10 CFU/ml"}
    ]},
    {"molecule": "N=C(NCCCCCCNC(=N)NC(=N)Nc1ccc(Cl)cc1)NC(=N)Nc1ccc(Cl)cc1.O=C(O)[C@H](O)[C@@H](O)[C@H](O)[C@H](O)CO.O=C(O)[C@H](O)[C@@H](O)[C@H](O)[C@H](O)CO", "note": "[Chlorhexidine gluconate]", "values": [
      {"measurement": "LOG10 CFU/ml Reduction, w/ CAPB", "setting": "S. aureus (ATCC 6538)", "result": "<2.4", "unit": "LOG10 CFU/ml"},
      {"measurement": "LOG10 CFU/ml Reduction, w/o CAPB", "setting": "S. aureus (ATCC 6538)", "result": 3.2, "unit": "LOG10 CFU/ml"},
      {"measurement": "LOG10 CFU/ml Reduction, w/ CAPB", "setting": "E. coli K12 (ATCC 29425) [1]", "result": "<3.1", "unit": "LOG10 CFU/ml"},
      {"measurement": "LOG10 CFU/ml Reduction, w/o CAPB", "setting": "E. coli K12 (ATCC 29425) [1]", "result": 5.5, "unit": "LOG10 CFU/ml"},
      {"measurement": "LOG10 CFU/ml Reduction, w/ CAPB", "setting": "[2]", "result": "<3.3", "unit": "LOG10 CFU/ml"},
      {"measurement": "LOG10 CFU/ml Reduction, w/o CAPB", "setting": "[2]", "result": ">5.7", "unit": "LOG10 CFU/ml"},
      {"measurement": "LOG10 CFU/ml Reduction, w/ CAPB", "setting": "E. faecalis (ATCC 29212)", "result": "<3.3", "unit": "LOG10 CFU/ml"},
      {"measurement": "LOG10 CFU/ml Reduction, w/o CAPB", "setting": "E. faecalis (ATCC 29212)", "result": "<3.3", "unit": "LOG10 CFU/ml"}
    ]},
    {"molecule": "CCCCCCCCCC[N+](C)(C)CCCCCCCCCC.[Cl-]", "note": "[Didecyldimonium chloride]", "values": [
      {"measurement": "LOG10 CFU/ml Reduction, w/ CAPB", "setting": "S. aureus (ATCC 6538)", "result": 4, "unit": "LOG10 CFU/ml"},
      {"measurement": "LOG10 CFU/ml Reduction, w/ CAPB", "setting": "S. aureus (ATCC 6538); listed as didecyldimonium chloride", "result": 4.0, "unit": "LOG10 CFU/ml"},
      {"measurement": "LOG10 CFU/ml Reduction, w/o CAPB", "setting": "S. aureus (ATCC 6538)", "result": ">4.9", "unit": "LOG10 CFU/ml"},
      {"measurement": "LOG10 CFU/ml Reduction, w/ CAPB", "setting": "E. coli K12 (ATCC 29425) [1]", "result": "<3.1", "unit": "LOG10 CFU/ml"},
      {"measurement": "LOG10 CFU/ml Reduction, w/o CAPB", "setting": "E. coli K12 (ATCC 29425) [1]", "result": 4.5, "unit": "LOG10 CFU/ml"},
      {"measurement": "LOG10 CFU/ml Reduction, w/ CAPB", "setting": "[2]", "result": "<3.3", "unit": "LOG10 CFU/ml"},
      {"measurement": "LOG10 CFU/ml Reduction, w/o CAPB", "setting": "[2]", "result": ">5.7", "unit": "LOG10 CFU/ml"},
      {"measurement": "LOG10 CFU/ml Reduction, w/ CAPB", "setting": "E. faecalis (ATCC 29212)", "result": "<3.3", "unit": "LOG10 CFU/ml"},
      {"measurement": "LOG10 CFU/ml Reduction, w/o CAPB", "setting": "E. faecalis (ATCC 29212)", "result": ">5.7", "unit": "LOG10 CFU/ml"}
    ]},
    {"molecule": "CCCCCCCCCCCC[N+](C)(C)CC(=O)[O-]", "note": "[Lauryl betaine]", "values": [
      {"measurement": "LOG10 CFU/ml Reduction, 0.3% benzalkonium chloride + 3.5% surfactant", "setting": "E. coli K12 (ATCC 29425) [3]", "result": "<3.1", "unit": "LOG10 CFU/ml"}
    ]},
    {"molecule": "Benzalkonium chloride", "values": [
      {"measurement": "LOG10 CFU/ml Reduction, w/ CAPB", "setting": "S. aureus (ATCC 6538)", "result": "<2.4", "unit": "LOG10 CFU/ml"},
      {"measurement": "LOG10 CFU/ml Reduction, w/o CAPB", "setting": "S. aureus (ATCC 6538)", "result": ">4.9", "unit": "LOG10 CFU/ml"},
      {"measurement": "LOG10 CFU/ml Reduction, 0.3% benzalkonium chloride", "setting": "E. coli K12 (ATCC 29425) [3]; 0.3% benzalkonium chloride alone", "result": ">5.5", "unit": "LOG10 CFU/ml"},
      {"measurement": "LOG10 CFU/ml Reduction, w/ CAPB", "setting": "E. coli K12 (ATCC 29425) [1]", "result": "<3.1", "unit": "LOG10 CFU/ml"},
      {"measurement": "LOG10 CFU/ml Reduction, w/o CAPB", "setting": "E. coli K12 (ATCC 29425) [1]", "result": ">5.5", "unit": "LOG10 CFU/ml"},
      {"measurement": "LOG10 CFU/ml Reduction, w/ CAPB", "setting": "[2]", "result": "<3.3", "unit": "LOG10 CFU/ml"},
      {"measurement": "LOG10 CFU/ml Reduction, w/o CAPB", "setting": "[2]", "result": ">5.7", "unit": "LOG10 CFU/ml"},
      {"measurement": "LOG10 CFU/ml Reduction, w/ CAPB", "setting": "E. faecalis (ATCC 29212)", "result": "<3.3", "unit": "LOG10 CFU/ml"},
      {"measurement": "LOG10 CFU/ml Reduction, w/o CAPB", "setting": "E. faecalis (ATCC 29212)", "result": ">5.7", "unit": "LOG10 CFU/ml"}
    ]},
    {"molecule": "Coco-betaine", "values": [
      {"measurement": "LOG10 CFU/ml Reduction, 0.3% benzalkonium chloride + 3.5% surfactant", "setting": "E. coli K12 (ATCC 29425) [3]", "result": "<3.1", "unit": "LOG10 CFU/ml"}
    ]},
    {"molecule": "Lauramidopropyl betaine", "values": [
      {"measurement": "LOG10 CFU/ml Reduction, 0.3% benzalkonium chloride + 3.5% surfactant", "setting": "E. coli K12 (ATCC 29425) [3]", "result": "<3.0", "unit": "LOG10 CFU/ml"}
    ]},
    {"molecule": "Meadowfoamamidopropyl betaine", "values": [
      {"measurement": "LOG10 CFU/ml Reduction, 0.3% benzalkonium chloride + 3.5% surfactant", "setting": "E. coli K12 (ATCC 29425) [3]", "result": "<3.0", "unit": "LOG10 CFU/ml"}
    ]}
  ]
}
